≈ marks a conversion by molar mass, not a printed value. Where two headings read alike, the source gives them in different places. Each block holds one compound with its values, some of them ahead of it. Where no end group is shown, it is not given here.
What was measured:
P.aeruginosa 337005 = type: cell-based, Pseudomonas aeruginosa
Protocol: (§1) The reference strains P. aeruginosa 337005, S. aureus 1882 and ETEC K88 were cultivated at 37 °C for 12 h. […] Then, 180 µL MH broth per well were added to the microtiter plate (Corning, Corning, NY, USA), and then 2 µL of the diluted bacterial solution was dispensed into each well. Peptides were then serially diluted with Milli-Q water, and 20 µL dilutions were added to the wells. Then, 2 µL Milli-Q water instead of 2 µL diluted bacterial solution was used as a blank control, and 20 µL Milli-Q water instead of 20 µL peptide dilution was used as a growth control. After culturing for 12 h at 37 °C, the MIC of the reference strain was observed, and the experiment was performed in three independent replicates.

S. aureus 1882 = type: cell-based, Staphylococcus aureus
Protocol: as §1

ETEC K88 [1] = experiment: MIC, microbroth dilution; type: cell-based, Enterotoxigenic Escherichia coli; conditions: micro-dilution in MH broth, 37 °C, 12 h, three independent replicates
Protocol: as §1

[2] = test system: P. aeruginosa 337005, S. aureus 1882 and ETEC K88; type: cell-based
Protocol: as §1

human erythrocytes = conditions: 90 µg/mL; cited from earlier work
Description: The low hemolytic activity of antimicrobial peptides on mammalian red blood cells is very important in clinical applications.

ETEC K88 [3] = experiment: Inhibition zone, Kirby–Bauer diffusion method; type: cell-based, Enterotoxigenic Escherichia coli; conditions: 50 µL on filter disk, 37 °C, 12 h, compared to PBS control and SUMO-TEV-CLP, n = 3
Protocol: (§2) ETEC K88 was used as a reference strain. […] The experiment was performed in three independent replicates.

ETEC K88 [4] = experiment: Propidium iodide uptake (membrane permeabilization); type: cell-based, Enterotoxigenic Escherichia coli; conditions: 100% = 0.05% SDS, average of 3 replicates
Protocol: PI can stain DNA, but cannot penetrate the complete cell membrane. Therefore, the fluorescence intensity of PI is positively correlated with the degree of cell membrane damage. The reference strain ETEC K88 was cultured at 37 °C for 12 h, and then diluted to 5 × 10^5 CFU/mL. Then, 10 µg/mL PI (Thermo Fisher, Waltham, MH, USA) was added to the diluted bacterial solution. […] The fluorescence intensity was measured using a microplate reader (Synergy H1, Bio Tek, Winooski, VT, USA) at the excitation wavelength and emission wavelength of 535 nm and 617 nm, respectively. During the continued 120 min reaction, the fluorescence values were monitored every 10 min. The PBS was a negative control, and 0.05% SDS was a positive control.

ETEC K88 [5] = experiment: Scanning electron microscopy of treated bacteria; type: cell-based, Enterotoxigenic Escherichia coli
Protocol: Scanning electron microscopy (SEM) was used to observe the damage of CLP to bacterial cell membranes. ETEC K88 was incubated at 37 °C for 12 h and then diluted with PBS to 5 × 10^5 CFU/mL. […] The CLP-treated ETEC K88 was washed with PBS and treated with 2.5% glutaraldehyde overnight. After dehydrating with alcohol and drying for gold coating, the samples were imaged by Quanta 200 (FEI).

ETEC K88 [6] = experiment: Thermal stability, antibacterial activity by inhibition zone; type: physicochemical, Enterotoxigenic Escherichia coli; conditions: for Antimicrobial activity after heat treatment: n = 3
Protocol: as §2
(§3) The reference strain was ETEC K88.

ETEC K88 [7] = experiment: pH stability, antibacterial activity by inhibition zone; type: physicochemical, Enterotoxigenic Escherichia coli; conditions: pH 4.0 to 9.0, 2 h, n = 3
Protocol: as §2, §3

[8] = micro-dilution in MH broth, 37 °C, 12 h, three independent replicates
[9] = range over P. aeruginosa 337005, S. aureus 1882, ETEC K88

Compound: CC[C@H](C)[C@H](NC(=O)[C@H](CCCCN)NC(=O)[C@H](CCC(=O)O)NC(=O)[C@H](CCCCN)NC(=O)[C@H](CO)NC(=O)[C@H](CCCCN)NC(=O)[C@H](CCCNC(=N)N)NC(=O)[C@H](Cc1ccccc1)NC(=O)[C@H](Cc1ccccc1)NC(=O)[C@H](CC(=O)O)NC(=O)CNC(=O)[C@H](CC(C)C)NC(=O)[C@@H](N)CC(C)C)C(=O)NCC(=O)N[C@@H](CCCCN)C(=O)N[C@@H](CCC(=O)O)C(=O)N[C@@H](Cc1ccccc1)C(=O)N[C@@H](CCCCN)C(=O)N[C@@H](CCCNC(=N)N)C(=O)N[C@H](C(=O)N[C@H](C(=O)N[C@@H](CCC(N)=O)C(=O)N[C@@H](CCCNC(=N)N)C(=O)N[C@H](C(=O)N[C@@H](CCCCN)C(=O)N[C@@H](CC(=O)O)C(=O)N[C@@H](Cc1ccccc1)C(=O)N[C@@H](CC(C)C)C(=O)N[C@@H](CCCNC(=N)N)C(=O)N[C@@H](CC(N)=O)C(=O)N[C@@H](CC(C)C)C(=O)N[C@H](C(=O)N1CCC[C@H]1C(=O)N[C@@H](CCCNC(=N)N)C(=O)N[C@H](C(=O)N[C@@H](CCC(=O)O)C(=O)N[C@@H](CO)C(=O)O)[C@@H](C)O)C(C)C)[C@@H](C)CC)C(C)C)[C@@H](C)CC [LL37]
MIC (P.aeruginosa 337005; [8]): 32 µg/mL (≈ 7.12 µM)
MIC (S. aureus 1882; [8]): 32 µg/mL (≈ 7.12 µM)
MIC (ETEC K88 [1]): 16 µg/mL (≈ 3.56 µM)
MICs for all the three reference strains (range) [2, 9]: 16 to 32 µg/mL
Hemolysis (human erythrocytes): about 30%

Compound: KWKLFKKIIGKEFKRIVQRIKDFLRNLVPRTERKDVT [rCLP]
MIC (P.aeruginosa 337005; 337005, 12 h): 2 µg/mL
MIC (S. aureus 1882; 1882, 12 h): 8 µg/mL
MICs for all the three reference strains (range) ([2]; 12 h): 2 to 8 µg/mL
Inhibition zone against ETEC K88 (ETEC K88 [3]): significantly inhibited the growth
Increase of PI fluorescence uptake (ETEC K88 [4]; 0.5 × MIC (1 µg/mL), 50 min): 16.0%
Increase of PI fluorescence uptake (ETEC K88 [4]; 0.5 × MIC (1 µg/mL), 120 min): 51.5%
Increase of PI fluorescence uptake (ETEC K88 [4]; 2 × MIC (4 µg/mL), 50 min): 83.3%
Increase of PI fluorescence uptake (ETEC K88 [4]; 2 × MIC (4 µg/mL), 120 min): 97.0%
Membrane morphology by SEM (ETEC K88 [5]): damaged the integrity of the bacterial cell membrane
Antimicrobial activity after heat treatment (ETEC K88 [6]; 70 °C for 30 min): almost completely retained
Antimicrobial activity after heat treatment (ETEC K88 [6]; temperatures above 70 °C (up to 100 °C), 30 min): significantly reduced the activity
Activity maintained throughout pH range (ETEC K88 [7]): more than 74.8%

Compound: KWKLFKKIIGKEFKRIVQRIKDFLRNLVPRTERKDVT [sCLP]
MIC (P.aeruginosa 337005; 337005, 12 h): 2 µg/mL
MIC (S. aureus 1882; 1882, 12 h): 8 µg/mL
Stability compared with recombinant CLP (ETEC K88 [6]; same temperature, pH value and enzyme treatment): almost the same stability

MICs for all the three reference strains (range) [2, 9]: over 512 µg/mL
Compound: RKDVY [TP5]

Reference: publication PMC8659006 (Molecules, 2021)
